Organism: Rattus norvegicus
Test: Open TG-GATES - Regimen: Daily Repeat
Assay type: toxicity, organism-based, Sprague-Dawley
Parameters: regimen Daily Repeat, gender Male, age 6 weeks
Details: in vivo, po, 0 mg/kg, route gavage, dose level Control; for KIDNEY_L / KIDNEY_R / KIDNEY_TOTAL: tissue Kidney; for ALP / ALT / AST / BUN / CRE / Ca / Cl / DBIL / GLC / IP / K / LDH / Na / PL / RALB / TBIL / TC / TG / TP / gamma-GTP: tissue Plasma

## CC(=O)Oc1ccccc1C(=O)O [ASPIRIN]
72 h, time 3 day
  TERMINAL_BW: 238.8 g
  KIDNEY_L: 1.1 g
  KIDNEY_R: 1.1 g
  KIDNEY_TOTAL: 2.1 g
  ALP: 970.4 IU/L
  ALT: 35.6 IU/L
  AST: 73.2 IU/L
  BUN: 14.8 mg/dL
  CRE: 0.4 mg/dL
  Ca: 10.8 mg/dL
  Cl: 102.2 meq/L
  DBIL: 0.082 mg/dL
  GLC: 203.2 mg/dL
  IP: 7.1 mg/dL
  K: 3.9 meq/L
  LDH: 223 IU/L
  Na: 140.4 meq/L
  PL: 148.8 mg/dL
  RALB: 3.4 g/dL
  TBIL: 0.1 mg/dL
  TC: 74.6 mg/dL
  TG: 99.2 mg/dL
  TP: 5.7 g/dL
  gamma-GTP: 1 IU/L
72 h, tissue Blood, time 3 day
  APTT: 19.3 s
  Bas: 0%
  Eos: 1%
  Fbg: 216.6 mg/dL
  Hb: 13.1 g/dL
  Ht: 38.5%
  Lym: 82%
  MCH: 21.2 pg
  MCHC: 34.2%
  MCV: 62.1 fL
  Mono: 2.4%
  Neu: 13.4%
  Plat: 121.3 x10_4/uL
  RBC: 620 x10_4/ul
  Ret: 5.9%
  WBC: 98.5 x10_2/uL
[…], time 7 day
  TERMINAL_BW: 272.8 g
  KIDNEY_L: 1.2 g
  KIDNEY_R: 1.2 g
  KIDNEY_TOTAL: 2.3 g
  ALP: 844.4 IU/L
  ALT: 29.2 IU/L
  AST: 59.2 IU/L
  BUN: 15.8 mg/dL
  CRE: 0.4 mg/dL
  Ca: 10.7 mg/dL
  Cl: 102.4 meq/L
  DBIL: 0.096 mg/dL
  GLC: 210.8 mg/dL
  IP: 7.6 mg/dL
  K: 3.6 meq/L
  LDH: 178.2 IU/L
  Na: 141 meq/L
  PL: 137.4 mg/dL
  RALB: 3.4 g/dL
  TBIL: 0.1 mg/dL
  TC: 66.4 mg/dL
  TG: 100.2 mg/dL
  TP: 5.5 g/dL
  gamma-GTP: 0.6 IU/L
[…], time 14 day
  TERMINAL_BW: 324.4 g
  KIDNEY_L: 1.3 g
  KIDNEY_R: 1.3 g
  KIDNEY_TOTAL: 2.5 g
  ALP: 726.8 IU/L
  ALT: 33.4 IU/L
  AST: 62.2 IU/L
  BUN: 17.8 mg/dL
  CRE: 0.4 mg/dL
  Ca: 10.8 mg/dL
  Cl: 103 meq/L
  DBIL: 0.1 mg/dL
  GLC: 193.6 mg/dL
  IP: 7.2 mg/dL
  K: 3.9 meq/L
  LDH: 220.2 IU/L
  Na: 141 meq/L
  PL: 151.2 mg/dL
  RALB: 3.3 g/dL
  TBIL: 0.1 mg/dL
  TC: 67.8 mg/dL
  TG: 152.8 mg/dL
  TP: 5.8 g/dL
  gamma-GTP: 1 IU/L
[…], time 28 day
  TERMINAL_BW: 389.9 g
  KIDNEY_L: 1.4 g
  KIDNEY_R: 1.4 g
  KIDNEY_TOTAL: 2.8 g
  ALP: 605.4 IU/L
  ALT: 33.2 IU/L
  AST: 60.8 IU/L
  BUN: 17 mg/dL
  CRE: 0.5 mg/dL
  Ca: 10.1 mg/dL
  Cl: 103.2 meq/L
  DBIL: 0.1 mg/dL
  GLC: 213 mg/dL
  IP: 6.3 mg/dL
  K: 3.7 meq/L
  LDH: 150 IU/L
  Na: 141 meq/L
  PL: 132.4 mg/dL
  RALB: 3.4 g/dL
  TBIL: 0.2 mg/dL
  TC: 65.4 mg/dL
  TG: 111.6 mg/dL
  TP: 6 g/dL
  gamma-GTP: 1.2 IU/L
[…], tissue Blood, time 7 day
  APTT: 21.2 s
  Bas: 0%
  Eos: 1%
  Fbg: 211.2 mg/dL
  Hb: 13.7 g/dL
  Ht: 40.3%
  Lym: 85.6%
  MCH: 21.1 pg
  MCHC: 34%
  MCV: 62.1 fL
  Mono: 2%
  Neu: 11%
  Plat: 128.4 x10_4/uL
  RBC: 648.4 x10_4/ul
  Ret: 5.3%
  WBC: 135.5 x10_2/uL
[…], tissue Blood, time 14 day
  APTT: 20.2 s
  Bas: 0%
  Eos: 0.8%
  Fbg: 216.8 mg/dL
  Hb: 14.2 g/dL
  Ht: 40.6%
  Lym: 82.6%
  MCH: 20.8 pg
  MCHC: 34.9%
  MCV: 59.6 fL
  Mono: 2%
  Neu: 13.4%
  RBC: 681.6 x10_4/ul
  Ret: 3.4%
  WBC: 134.5 x10_2/uL
[…], tissue Blood, time 28 day
  APTT: 21.5 s
  Bas: 0%
  Eos: 1%
  Fbg: 210.8 mg/dL
  Hb: 15.7 g/dL
  Ht: 45.3%
  Lym: 81.8%
  MCH: 19.3 pg
  MCHC: 34.7%
  MCV: 55.6 fL
  Mono: 2%
  Neu: 13.8%
  PT: 12.6 s
  Plat: 116.7 x10_4/uL
  RBC: 815.4 x10_4/ul
  Ret: 1.8%
  WBC: 109 x10_2/uL

Reference: ChEMBL document CHEMBL3885861, “Open TG-GATES”
